Experimental data taken from ChEMBL document CHEMBL4266012, “Identification of Quinoline-Based RIP2 Kinase Inhibitors with an Improved Therapeutic Index to the hERG Ion Channel” (ACS Med Chem Lett, 2018).

Assays:
[1] = Fraction unbound in Sprague-Dawley rat plasma; format: ADME, cell-free
[2] = test system: Rattus norvegicus; test: Time at which plasma concentration stays above in vitro human whole blood IC50 in Crl:CD(SD) rat peritonitis model at 2 mg/kg, po; format: ADME, organism-based; details: in vivo
[3] = Half life in Sprague-Dawley rat at 1 mg/kg, iv by LC-MS/MS analysis; format: ADME, organism-based; details: in vivo
[4] = Cmax in Sprague-Dawley rat at 2 mg/kg, po by LC-MS/MS analysis; format: ADME, organism-based; set-up: dose 2 mg/kg, route oral; details: in vivo
[5] = Volume of distribution at steady state in Sprague-Dawley rat at 2 mg/kg, iv or 2 mg/kg, po by LC-MS/MS analysis; format: ADME, organism-based; details: in vivo, read-out: Vdss
[6] = Oral bioavailability in Sprague-Dawley rat at 2 mg/kg by LC-MS/MS analysis; format: ADME, organism-based; details: in vivo
[7] = Half life in Sprague-Dawley rat at 2 mg/kg, iv by LC-MS/MS analysis; format: ADME, organism-based; details: in vivo
[8] = Clearance in Sprague-Dawley rat at 2 mg/kg, iv or 2 mg/kg, po by LC-MS/MS analysis; format: ADME, organism-based; details: in vivo
[9] = AUC in Sprague-Dawley rat at 2 mg/kg, po by LC-MS/MS analysis; format: ADME, organism-based; details: in vivo
[10] = Volume of distribution at steady state in Beagle dog at 1.1 mg/kg, iv or 2 mg/kg, po by LC-MS/MS analysis; format: ADME, organism-based, Canis lupus familiaris; details: in vivo, read-out: Vdss
[11] = Volume of distribution at steady state in Sprague-Dawley rat at 1.1 mg/kg, iv or 2 mg/kg, po by LC-MS/MS analysis; format: ADME, organism-based; details: in vivo, read-out: Vdss
[12] = Cardiotoxicity in arterially perfused rabbit cardiac left ventricular wedge assessed as Tp-e interval time at 1 uM by electrophysiology assay (reference value: 59.2 +/- 4.8 milliseconds); format: toxicity, tissue-based, Oryctolagus cuniculus, Heart left ventricle
[13] = Cardiotoxicity in arterially perfused rabbit cardiac left ventricular wedge assessed as prolongation of QT interval by electrophysiology assay; format: toxicity, tissue-based, Oryctolagus cuniculus, Heart left ventricle
[14] = Oral bioavailability in Beagle dog at 2 mg/kg by LC-MS/MS analysis; format: ADME, organism-based, Canis lupus familiaris; details: in vivo
[15] = Cardiotoxicity in arterially perfused rabbit cardiac left ventricular wedge assessed as change in QT interval at 10 uM by electrophysiology assay; format: toxicity, tissue-based, Oryctolagus cuniculus, Heart left ventricle
[16] = Cardiotoxicity in arterially perfused rabbit cardiac left ventricular wedge assessed as change in isometric contractile force at 10 uM by electrophysiology assay (reference value: 0%); format: toxicity, tissue-based, Oryctolagus cuniculus, Heart left ventricle
[17] = Cardiotoxicity in arterially perfused rabbit cardiac left ventricular wedge assessed as QRS interval time at 3 uM by electrophysiology assay (reference value: 33.9 +/- 2.7 milliseconds); format: toxicity, tissue-based, Oryctolagus cuniculus, Heart left ventricle
[18] = Cardiotoxicity in arterially perfused rabbit cardiac left ventricular wedge assessed as QRS interval time at 0.3 uM by electrophysiology assay (reference value: 33.9 +/- 2.7 milliseconds); format: toxicity, tissue-based, Oryctolagus cuniculus, Heart left ventricle
[19] = Cardiotoxicity in arterially perfused rabbit cardiac left ventricular wedge assessed as Tp-e interval by electrophysiology assay; format: toxicity, tissue-based, Oryctolagus cuniculus, Heart left ventricle
[20] = Cardiotoxicity in arterially perfused rabbit cardiac left ventricular wedge assessed as Tp-e interval time at 3 uM by electrophysiology assay (reference value: 59.2 +/- 4.8 milliseconds); format: toxicity, tissue-based, Oryctolagus cuniculus, Heart left ventricle
[21] = Cardiotoxicity in arterially perfused rabbit cardiac left ventricular wedge assessed as change in QT interval at 3 uM by electrophysiology assay; format: toxicity, tissue-based, Oryctolagus cuniculus, Heart left ventricle
[22] = Cardiotoxicity in arterially perfused rabbit cardiac left ventricular wedge assessed as Tp-e interval time at 10 uM by electrophysiology assay (reference value: 59.2 +/- 4.8 milliseconds); format: toxicity, tissue-based, Oryctolagus cuniculus, Heart left ventricle
[23] = Cardiotoxicity in arterially perfused rabbit cardiac left ventricular wedge assessed as QRS interval time at 10 uM by electrophysiology assay (reference value: 33.9 +/- 2.7 milliseconds); format: toxicity, tissue-based, Oryctolagus cuniculus, Heart left ventricle
[24] = Half life in Sprague-Dawley rat at 1.1 mg/kg, iv by LC-MS/MS analysis; format: ADME, organism-based; details: in vivo
[25] = Cardiotoxicity in arterially perfused rabbit cardiac left ventricular wedge assessed as change in isometric contractile force at 3 uM by electrophysiology assay (reference value: 0%); format: toxicity, tissue-based, Oryctolagus cuniculus, Heart left ventricle
[26] = AUC in Beagle dog at 2 mg/kg, po by LC-MS/MS analysis; format: ADME, organism-based, Canis lupus familiaris; details: in vivo
[27] = Cardiotoxicity in arterially perfused rabbit cardiac left ventricular wedge assessed as change in QT interval at 0.3 uM by electrophysiology assay; format: toxicity, tissue-based, Oryctolagus cuniculus, Heart left ventricle
[28] = Clearance in Sprague-Dawley rat at 1.1 mg/kg, iv or 2 mg/kg, po by LC-MS/MS analysis; format: ADME, organism-based; details: in vivo
[29] = Cardiotoxicity in arterially perfused rabbit cardiac left ventricular wedge assessed as change in isometric contractile force at 1 uM by electrophysiology assay (reference value: 0%); format: toxicity, tissue-based, Oryctolagus cuniculus, Heart left ventricle
[30] = Clearance in Beagle dog at 1.1 mg/kg, iv or 2 mg/kg, po by LC-MS/MS analysis; format: ADME, organism-based, Canis lupus familiaris; details: in vivo
[31] = Cardiotoxicity in arterially perfused rabbit cardiac left ventricular wedge assessed as change in QT interval at 1 uM by electrophysiology assay; format: toxicity, tissue-based, Oryctolagus cuniculus, Heart left ventricle
[32] = Cmax in Beagle dog at 2 mg/kg, po by LC-MS/MS analysis; format: ADME, organism-based, Canis lupus familiaris; set-up: dose 2 mg/kg, route oral; details: in vivo
[33] = Cardiotoxicity in arterially perfused rabbit cardiac left ventricular wedge assessed as change in isometric contractile force at 0.3 uM by electrophysiology assay (reference value: 0%); format: toxicity, tissue-based, Oryctolagus cuniculus, Heart left ventricle
[34] = Fraction unbound in Beagle dog plasma; format: ADME, cell-free, Canis lupus familiaris
[35] = Half life in Beagle dog at 1.1 mg/kg, iv by LC-MS/MS analysis; format: ADME, organism-based, Canis lupus familiaris; details: in vivo
[36] = Cardiotoxicity in arterially perfused rabbit cardiac left ventricular wedge assessed as QRS interval time at 1 uM by electrophysiology assay (reference value: 33.9 +/- 2.7 milliseconds); format: toxicity, tissue-based, Oryctolagus cuniculus, Heart left ventricle
[37] = Cardiotoxicity in arterially perfused rabbit cardiac left ventricular wedge assessed as Tp-e interval time at 0.3 uM by electrophysiology assay (reference value: 59.2 +/- 4.8 milliseconds); format: toxicity, tissue-based, Oryctolagus cuniculus, Heart left ventricle

CC(C)(C)S(=O)(=O)c1ccc2nccc(Nc3n[nH]c4ccc(F)cc34)c2c1
fraction unbound [1]: 0.026 | Time [2]: 4 h | half-life [3]: 7 h

Cc1[nH]nc(Nc2ccnc3ccc(S(=O)(=O)C(C)(C)C)cc23)c1C
Cmax [4]: 990 ng/mL | fraction unbound [1]: 0.112 | Vd [5]: 2.1 L/kg | bioavailability [6]: 82% | half-life [7]: 4.2 h | clearance [8]: 12 mL/min/kg | AUC [9]: 3800 ng·h/mL

COc1cc2nccc(Nc3n[nH]c(C)c3C)c2cc1S(=O)(=O)C(C)(C)C
Cmax [4]: 740 ng/mL | Vd [10]: 3.5 L/kg | Vd [11]: 1.1 L/kg | Time [12]: 67.9 ms | Activity [13]: Dose-dependent effect | bioavailability [14]: 96% | Activity [15]: 9.3% | Activity [16]: -28% | Time [17]: 35.2 ms | Time [18]: 34.9 ms | Activity [19]: Dose-dependent effect | Time [20]: 73.3 ms | fraction unbound [1]: 0.055 | Activity [21]: 6.4% | Time [22]: 77 ms | Time [23]: 36.3 ms | half-life [24]: 3.1 h | Activity [25]: -22.6% | AUC [26]: 1900 ng·h/mL | Activity [27]: 2% | clearance [28]: 12 mL/min/kg | Activity [29]: -17.3% | clearance [30]: 20 mL/min/kg | Activity [31]: 3.6% | bioavailability [6]: 85% | Time [2]: 24 h | Cmax [32]: 330 ng/mL | Activity [33]: -9.9% | fraction unbound [34]: 0.163 | AUC [9]: 2400 ng·h/mL | half-life [35]: 2.5 h | Time [36]: 35.4 ms | Time [37]: 64.2 ms
